These are literature values, as cited in patent US20050107420A1 (Boehringe Ingelheim Pharma GmbH & Co. KG, priority 2002, published 2005).

For series [1] the following is noted: in vivo.
For series [2] the following is noted: rat.
The subject of series [3] is gastric parietal cells.
Series [4] concerns PDE4B mutant enzyme. As to conditions: alanine for aspartate substitution.
For series [5] the following is noted: human, in vivo.
Series [6] concerns TNF release and lymphocyte proliferation. The following applies: oral dose of 300 mg.
For series [7] the following is noted: guinea-pig.
For series [8] the following is noted: antigen-challenged pig.
The target in series [9] is PDE4D isoform (Homo sapiens, UniProt Q08499).
Test in series [10]: not given
This is another data set of the same source.

Series [11] deals with catalytic site (Sc) of PDE4.
Series [12] deals with tumor cells. The following applies: micromolar concentrations.
The subject of series [13] is PDE4 derived from tumor cells. As to conditions: read-out: IC50 against a PDE4 derived from tumor cells.
The conditions of series [14]: oral administration, clinical conditions.
Series [15] relates to cAMP.
For series [16] the following is noted: in vivo. This is another data set of the same source.

PDE4D isoform, sequence (Q08499 whole entry, canonical isoform): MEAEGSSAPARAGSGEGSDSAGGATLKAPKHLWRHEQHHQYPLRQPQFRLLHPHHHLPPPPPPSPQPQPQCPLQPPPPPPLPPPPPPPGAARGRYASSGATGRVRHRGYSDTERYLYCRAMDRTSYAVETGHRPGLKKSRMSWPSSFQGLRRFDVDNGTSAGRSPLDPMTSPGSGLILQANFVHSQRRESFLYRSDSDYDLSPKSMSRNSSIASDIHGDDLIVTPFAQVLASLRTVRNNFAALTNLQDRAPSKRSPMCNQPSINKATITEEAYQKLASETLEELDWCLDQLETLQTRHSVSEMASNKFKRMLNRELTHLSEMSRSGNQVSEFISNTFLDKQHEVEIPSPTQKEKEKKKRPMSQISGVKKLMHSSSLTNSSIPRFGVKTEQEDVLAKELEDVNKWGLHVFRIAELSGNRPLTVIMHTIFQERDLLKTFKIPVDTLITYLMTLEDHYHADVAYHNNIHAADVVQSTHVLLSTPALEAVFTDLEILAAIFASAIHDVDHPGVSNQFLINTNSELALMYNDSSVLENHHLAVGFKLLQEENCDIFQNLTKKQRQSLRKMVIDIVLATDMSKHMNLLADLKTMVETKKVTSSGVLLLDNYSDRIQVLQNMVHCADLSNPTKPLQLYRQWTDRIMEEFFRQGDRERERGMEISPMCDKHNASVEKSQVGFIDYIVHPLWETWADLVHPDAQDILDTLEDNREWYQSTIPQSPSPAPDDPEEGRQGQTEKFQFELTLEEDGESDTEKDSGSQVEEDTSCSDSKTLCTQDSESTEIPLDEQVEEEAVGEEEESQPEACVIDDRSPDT

As for `CCCOc1ccccc1-c1nc2[nH]nnc2c(=O)[nH]1` [zaprinast], the bronchodilation result in series [1] is on record as “Unsatisfactory results”.
For the molecule `COc1cc2c3c(c1)C(c1ccccc1)=N[C@@H](NC(=O)c1cc4ccccc4cn1)C(=O)N3CC2` [CI-1018], the “oral potency, ED50” value in [2] is given as 5 mg/kg.
In the case of `COc1ccc(C2CNC(=O)C2)cc1OC1CCCC1` (centres unmarked) [rolipram], the “stimulation of acid secretion from gastric parietal cells” value in series [3] is given as “very potent stimulator”. Further, the “potency on the mutant PDE4B enzyme” value in series [4] is “lose potency”.
As for `Cn1c(=O)c2[nH]cnc2n(C)c1=O` [theophylline], the “neutrophil counts in the sputum of COPD patients” value in series [5] is reported as “reduces neutrophil counts”.
Turning to `CCNc1ncn(Cc2ccc(OC)c(OC3CCCC3)c2)c2nc(C(C)C)nc1-2` [Formula V-11294A], in series [6], the “TNF levels and lymphocyte proliferation ex vivo” value is “effective in reducing TNF levels and lymphocyte proliferation”.
For the molecule `COc1ccc(C(=O)Nc2c(Cl)cncc2Cl)cc1OC1CCCC1` [RP-73,401], in series [7], the “inhibition of antigen-induced airway eosinophilia and PAF- and ozone-induced airway hyper-responsiveness (AHR)” value was “active”; the “inhibition of antigen-induced bronchoalveolar lavage (BAL) eosinophilia” value was “active”; the “inhibition of antigen-induced lung eosinophilia and eosinophil peroxidase (EPO)” value is listed as “active”. Also, in series [4], the “potency on the mutant PDE4B enzyme” value is reported as “lose potency”.
In the case of `CC[N+]1(C)[C@@H]2CC(OC(=O)[C@H](CO)c3ccccc3)C[C@H]1[C@@H]1O[C@@H]12` (some centres unmarked) [oxitropium], the “change in heart rate, blood pressure, bladder function, intraocular pressure, or pupillary diameter” value (inhaled at several times the recommended dose) is reported as “little or no change”.
For the molecule `CCCn1c(=O)c2c(C)nc(CC)n2c2nc(OC)ccc21` [Formula D-22888], in series [8], the anti-allergic effect result is recorded as “strong anti-allergic affect” and the rhinorrhea result is “inhibit rhinorrhea”.
With `O=c1c2cccnc2n(-c2cccc([N+](=O)[O-])c2)c(=O)n1Cc1ccncc1` [RS-25,344], the “potency or selectivity for PDE4D relative to other subtypes, in words” value in series [9] is “more potent against PDE4D”.
For `C[N+]1(C)C2CC(OC(=O)C(O)(c3cccs3)c3cccs3)CC1C1OC12` (stereo not drawn) [tiotropium, (1α, 2β, 4β, 5α, 7β)-7-[(hydroxydi-2-thienylacetyl)oxy]-9,9-dimethyl-3-oxa-9-azoniatricyclo[3.3.1.0^2,4]nonane bromide], for the setting “in vivo”, the duration of action entry is on record as “prolonged duration of action”.
For `N#Cc1cccc(-c2nc(-c3ccc(C(=O)O)cc3)cc3cccnc23)c1` [Formula (0.1.59)], the “potency or selectivity for PDE4D relative to other subtypes, in words” value in series [9] is “PDE4D selective inhibitor”.
Consider `COc1cc2c(cc1OC)[C@@H]1CN(C)CC[C@@H]1N=C2c1ccc(NC(C)=O)cc1` [benafentrine], for which the bronchodilation result in series [1] is listed as “bronchodilation only when administered by inhalation”.
With `COc1ccc([C@H](Cc2ccncc2)c2ccccc2)cc1OC1CCCC1` [CDP840], the “late reactions to inhaled allergen” value in series [10] (9.5 days oral administration, 15 and 30 mg, patients with bronchial asthma) is reported as “suppression of late reactions to inhaled allergen”. Moreover, the “late-phase response in the treatment of asthma” value in series [10] (human, in vivo) is reported as “significant inhibition”. Also, the “potency at the Sc” value in series [11] was “significantly higher potency at the Sc than does SB-207,499”.
With `Clc1nc2c(N3CCCC3)nc(C3CCNCC3)nc2nc1NCc1ccccc1` [Formula (0.1.55)], the “inhibition of the growth of tumor cells” value in series [12] was “inhibit the growth of tumor cells at micromolar concentrations”. Further, the IC50 (usually the point on the concentration scale where inhibition reaches its midpoint) in series [13] is 16 nM.
Regarding `CSc1ccc(C(=O)c2[nH]c(=O)[nH]c2C)cc1` [enoximone], the “mean pulmonary artery pressure” value in series [14] was “decreases in mean pulmonary artery pressure”.
Regarding `O=C(NCc1ccccc1Cl)c1cccnc1Oc1ccc(F)cc1` [Formula (0.1.58)], the “selectivity for inhibition of the PDE4D isoform” value in series [9] is reported as 100 fold.
Consider `CCOc1cc2cc(C(=O)O)sc2cc1OCC` [tibenelast], for which the bronchodilation entry in series [1] is reported as “Unsatisfactory results”.
In the case of `COc1ccc([C@@H](Cc2ccncc2)c2ccccc2)cc1OC1CCCC1` [CT-1731], the “elevation of cAMP, activity relative to enantiomer CDP840” value in series [15] is given as “less active”.
Take `COc1ccc(CC2CNC(=O)N2)cc1OC1CCCC1` (centres unmarked) [Ro-20-1724]: the “potency on the mutant PDE4B enzyme” value in [4] is listed as “lose potency”.
`COc1ccc(C2CNC(=O)NC2)cc1OC1CC2CCC1C2` (centres unmarked) [CP-80,633]: in series [16], the “emesis, nausea and vomiting” value is listed as “elicit emesis”.
Regarding `COc1cc(-c2ccc(=O)[nH]n2)ccc1OC(F)F` [zardaverine], the bronchodilation entry in [1] was “only a modest and short-lived bronchodilation”.
